Test results taken from patent publication US20260053799A1, “COMPOUNDS FOR TREATING CANCER” (EVEXTA BIO, priority 2022, published 2026).
“Also recorded” adds a separate entry of the source.

Legend:
MCF7 tumors = test: Antitumor efficacy in xenograft model of SCID-CB17 mice implanted with MCF7 cells; type: in vivo; conditions: per os, qd 5 weeks
Method: Antitumor efficacy of anticancer compounds in a xenograft model of SCID-CB17 mice implanted with MCF7 cells, and assessment of the substrates phosphorylation.
MCF7 cells are amplified in vitro in complete medium prior implantation. 24h prior cells injection, the mice are implanted with an estrogen pellet (Innovative Research of America at 0.18 mg/pellet).
On the day of injection, cells are harvested, counted thanks to a trypan blue viability dye (acceptability cut-off ≥80% viability), and resuspended in 50:50 PBS:Matrigel at the appropriate concentration. The cells are then injected subcutaneously in the right flank at 5.10^6 cells/mouse in 200 μL PBS:Matrigel within 30 minutes after harvesting, in 120 mice. […]
In order to assess the effectiveness of the compounds on tumorigenesis, tumor volume are measured twice per week for 8 weeks and mice are weighed once per week for 8 weeks.
The sizes of the primary tumors are measured using calipers and the tumor volume (TV) is extrapolated to a sphere using the formula TV=4/3π×r3, by calculating the mean radius from the two measurements. […]

[1] = Plasma and brain concentration after dosing (blood brain barrier crossing), Table A; type: in vivo; conditions: for Concentration: dose 25 mg/kg, administered orally
From the text: The present disclosure also encompasses the advantageous therapeutic use of a quinazoline carboxamide azetidine compound, preferably of 4-[(S)-2-Azetidin-1-yl-1-(4-chloro-3-trifluoromethyl-phenyl)-ethylamino]-quinazoline-8-carboxylic acid amide (M2698) or a pharmaceutically acceptable polymorph, enantiomer, stereoisomer, salt, solvate or tautomer thereof, for treating a metastasized cancer, e.g., a cancer that has spread to the brain, a bone, a lung, the liver, or the central nervous system.

[2] = Machl et al., 2016; cited from earlier work
[3] = test system: ER+ and HER2+breast cancer; conditions: patients, cited from earlier work

Concentration ([1]; Brain)	Concentration ([1]; Plasma)	Ability to cross the blood brain barrier ([1]; administered orally at 25 mg/kg of body weight)	SMILES	MCF7 tumor growth (tumor volume) (MCF7 tumors; Elacestrant 50 mg/kg/day)	MCF7 tumor growth (tumor volume) (MCF7 tumors; M2698 20 mg/kg/day, 20 mg/kg/day)	Crosses the blood-brain barrier [2]	Tolerability ([3]; monotherapy and combined with trastuzumab or tamoxifen)	Efficacy of monotherapy ([3]; monotherapy)
–	–	–	CCNCCc1ccc(CN(CC)c2cc(OC)ccc2[C@@H]2CCc3cc(O)ccc3C2)cc1 [Elacestrant, (R)-6-(2-(ethyl(4-(2-(ethylamino)ethyl)benzyl)amino)-4-methoxyphenyl)-5,6,7,8-tetrahydronaphthalen-2-ol, reference compound]	weakly inhibited	–	–	–	–
4000 ng/mL	1600 ng/mL	able to cross the blood brain barrier	NC(=O)c1cccc2c(N[C@H](CN3CCC3)c3ccc(Cl)c(C(F)(F)F)c3)ncnc12 [M2698, 4-[(S)-2-Azetidin-1-yl-1-(4-chloro-3-trifluoromethyl-phenyl)-ethylamino]-quinazoline-8-carboxylic acid amide]	–	strong antitumor efficacy; also recorded: strongly inhibited tumor growth	crosses the blood-brain barrier	well tolerated	modest
